Source: patent US20130017570A1, “METHOD FOR MONITORING STATE OF DIFFERENTIATION IN STEM CELL” (OLYMPUS CORPORATION, priority 2010, published 2013)

Tested on: Nanog gene expression in mouse ES cells constitutively expressing Nanog-Eluc
Assay: Luminescence imaging of Nanog-Eluc expression in ES cell colonies under FGF stimulus and FGF signal inhibitors
Assay type: cell-based
Conditions: FGF 10 ng/ml, medium without LIF, before inhibitor addition
Excerpt: Mouse ES cells used in Example 1-2 were used, which is constitutively expressing Nanog-Eluc. The cells were differentiation-induced with FGF (Fibroblast Growth Factor), and then observed under condition with signal transduction inhibitor. FGF signal is a signal transduction which induces stem cell differentiation, and it has been reported that the stem cell returns from the differentiated state to the undifferentiated state by the action of an inhibitor (T. Kunath et al., Development 134, pp. 2895-2902, 2007). The preparation method of ES cells is in the same manner as in Example 1-2. […]
D-luciferin (manufactured by Promega KK: final concentration of 500 μM) was added for luminescence observation, FGF (FGFβ human, PeproTech Inc.) was added so as to have a final concentration of 10 ng/ml, and then the mouse ES cells were observed using a luminescence microscope LV200 (manufactured by Olympus Corporation). As the luminescence observation conditions, the luminescence images of the mouse ES cells were taken under 55 min exposure at 1 hour intervals, thereby observing Nanog gene expression level. […]
After the time-lapse observation, the captured images were saved, and numerical data was analyzed from the observation images using an image analysis software “AQUACOSMOS (manufactured by Hamamatsu Photonics K.K.)”, and the analyzed numerical data was shown as graph data. […]

## FGF: Fibroblast Growth Factor (FGFβ human, PeproTech Inc.) used for differentiation induction
  Nanog expression (luminescence intensity) when adding FGF, expression pattern C colonies: not seen
